From patent US10517889B2, “Modulators of SMAD7 expression” (Ionis Pharmaceuticals, Inc., priority 2017, dated 2019)
Strand notation (5' to 3'): a small letter for the sugar, then the base; units joined by * are phosphorothioate-linked, units joined directly phosphodiester-linked; [ ] holds rarer units or linkages, { } end groups; capitals alone tell only the bases. k = constrained ethyl (cEt); [5mC] = 5-methylcytosine; d = 2'-deoxy (DNA)

Key:
human SMAD7 mRNA [1] = experiment: Dose-dependent inhibition of human SMAD7 mRNA expression in Hep3B cells (Example 3, Study 1 and 2); format: cell-based; conditions: electroporation; for % inhibition of SMAD7 mRNA expression: approximately 16 hours; for IC50: Study 2 (740-20000 nM)
How it was run: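 Hep3B cells, 20,000 per well, electroporated with antisense oligonucleotide at 0.31, 1.25, 5.00 or 20.00 μM (first series) or 0.74, 2.22, 6.67 or 20.00 μM (second series). After ~16 h, SMAD7 mRNA measured by RT-qPCR (RTS5062), normalised to RIBOGREEN total RNA. Percent inhibition vs untreated cells; IC50 derived.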

human SMAD7 mRNA [2] = experiment: Antisense inhibition of human SMAD7 mRNA expression in Hep3B cells by 3-10-3 cEt gapmers, 10,000 nM, electroporation (Example 2); format: cell-based; conditions: approximately 24 hours
How it was run: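 Hep3B, 20,000 cells/well; electroporation, 10,000 nM ASO; ~24 h. Readout: SMAD7 mRNA by qRT-PCR (RTS5062), RIBOGREEN-normalised; % inhibition vs untreated.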

[3] = 740 nM, Study 2, relative to untreated control cells
[4] = Hep3B cells, electroporation with 10,000 nM antisense oligonucleotide, SMAD7 mRNA by RT-PCR (RTS5062), relative to untreated control cells
[5] = SMAD7 mRNA, Hep3B cells, 10,000 nM antisense oligonucleotide, electroporation, primer probe set RTS5062, relative to untreated control cells
[6] = Hep3B cells, electroporation with 10,000 nM antisense oligonucleotide, primer probe set RTS5062, relative to untreated control cells

Substance | % inhibition of SMAD7 mRNA expression (human SMAD7 mRNA [1]; [3]) [%] | % inhibition of SMAD7 mRNA expression (human SMAD7 mRNA [1]; 2220 nM, Study 2) [%] | % inhibition of SMAD7 mRNA expression (human SMAD7 mRNA [1]; 6670.0 nM, Study 2) [%] | % inhibition of SMAD7 mRNA expression (human SMAD7 mRNA [1]; 20000.0 nM, Study 2) [%] | IC50 (human SMAD7 mRNA [1]) [µM] | % Inhibition (human SMAD7 mRNA [2]; [4]) [%] | % Inhibition (human SMAD7 mRNA [2]; [5]) [%] | % Inhibition (human SMAD7 mRNA [2]; [6]) [%] | % inhibition of SMAD7 mRNA expression (human SMAD7 mRNA [2]; [6]) [%] | % inhibition of SMAD7 mRNA expression (human SMAD7 mRNA [2]; Hep3B cells, electroporation, 10,000 nM antisense oligonucleotide, RTS5062, relative to untreated control cells) [%] | % Inhibition (human SMAD7 mRNA [2]; Hep3B cells, electroporation with 10,000 nM antisense oligonucleotide, RTS5062, percent inhibition of SMAD7 mRNA relative to untreated control cells) [%]
830144 (antisense kG*kG*kG*dT*dG*dT*dG*d[5mC]*dA*d[5mC]*d[5mC]*dA*dG*kG*kT*kG) [compound 830144] | 47 | 68 | 85 | 96 | 1 | 66 | – | – | – | – | –
829767 (antisense kG*kG*kA*dG*dG*d[5mC]*dA*d[5mC]*dG*d[5mC]*dG*dG*dT*kG*k[5mC]*kG) [compound 829767] | 5 | 6 | 36 | 49 | 3 | – | 66 | – | – | – | –
829762 (antisense k[5mC]*k[5mC]*kT*dT*d[5mC]*dA*dG*dA*dT*d[5mC]*d[5mC]*dG*d[5mC]*k[5mC]*kT*k[5mC]) [compound 829762] | 27 | 41 | 59 | 78 | > 20 | – | 67 | – | – | – | –
830180 (antisense k[5mC]*kG*kT*dG*dT*dA*d[5mC]*d[5mC]*d[5mC]*dA*dG*d[5mC]*dT*kG*k[5mC]*k[5mC]) [compound 830180] | 21 | 39 | 43 | 64 | 8 | 62 | – | – | – | – | –
790614 (kG*kA*kG*dA*dA*dT*dG*d[5mC]*dT*dT*d[5mC]*dT*d[5mC]*kT*kT*kG; antisense) [compound 790614] | 0 | 29 | 45 | 54 | 11 | – | – | 70 | – | – | –
799486 (antisense k[5mC]*kA*kT*dA*dA*dT*dG*dA*d[5mC]*dT*dT*dA*dT*k[5mC]*k[5mC]*kA) [compound 799486] | 20 | 17 | 57 | 88 | 11 | 52 | – | – | – | – | –
799070 (antisense kA*kG*kG*dG*dA*dA*dT*dA*dA*dG*dA*d[5mC]*dA*kA*kG*kG) [compound 799070] | 0 | 44 | 42 | 60 | 4 | – | – | – | 67 | – | –
799429 (antisense k[5mC]*kA*k[5mC]*dA*dA*dG*dT*d[5mC]*dA*d[5mC]*dA*dA*d[5mC]*kT*kG*kG) [compound 799429] | 24 | 50 | 60 | 63 | 7 | 74 | – | – | – | – | –
799734 (antisense kT*k[5mC]*k[5mC]*d[5mC]*dA*dG*dG*dT*dG*dA*dA*d[5mC]*d[5mC]*k[5mC]*kA*k[5mC]) [compound 799734] | 8 | 44 | 64 | 67 | 8 | – | – | – | – | 45 | –
799668 (antisense kG*kA*k[5mC]*dA*dG*dA*dT*dG*d[5mC]*d[5mC]*dA*dG*d[5mC]*kA*kA*kG) [compound 799668] | 15 | 17 | 39 | 72 | 1 | – | – | – | – | – | 75
